Experimental data published in US20040253277A1, “Anaesthetic formulations of propofol” (priority 2001, published 2004).
≈ marks a conversion by molar mass, not a printed value.

Assays:
physchem = details: water, thermodynamic from solid
Procedure: Analyses were performed using the Perkin Elmer Lambda 5 UV/V is Spectrophotometer.
Two sets of standards were prepared by serial dilution of:
1. 10% poloxamer P407/1% Propofol solution in water.
2. 1% Propofol solution in ethanol (EtOH).
Dilutions were performed with water and EtOH respectively. The standards were further diluted one hundred fold prior to measurement of their UV absorption spectra recorded.

[1] = in vivo; cited from earlier work

For `CC(C)c1cccc(C(C)C)c1O` [Propofol, 2,6-bis(1-methylethyl)phenol; 2,6-diisopropylphenol], which solubility thermodynamic (physchem) is on record?
The solubility thermodynamic was roughly 1000 µM (≈ 178 µg/mL).

What about the “dose required for long term infusion for anaesthesia” value [1] of the same compound?
Its value is 4-12 mg/kg per hour.

What about the “time of maximum effect after dosing” value [1] of the same compound?
The value was “within about one minute”.
